Measured values taken from publication PMC5068747, “Using C. elegans Forward and Reverse Genetics to Identify New Compounds with Anthelmintic Activity” (PLoS Neglected Tropical Diseases, 2016).
“Also recorded” adds a separate entry of the source. Where two headings read alike, the source gives them in different places.

How the values were obtained:
[1] = test system: C. elegans VC2010 (wild type); experiment: WormScan screen of C. elegans growth, fecundity, motility and mortality; type: in vivo, Caenorhabditis elegans; settings: C. elegans; for IC50: 5 days exposure, read-out: Nematode IC50
Protocol: All compound libraries were stored in 96-well plates, with 80 drugs per plate (columns 1 and 12 left empty). A BioGrid BG600 pinning robot (Digilab / BioRobotics) was used for compound transfer. The robot uses a 96-pin tool (0.7 mm dia.) to transfer a nominal volume of 340 nL of compound. For retesting, compounds were hand pinned from the original library plates to assay plates using a single 0.7 mm dia. pin. The assay plates were 96-well clear flat-bottom microplates containing 2% χ1666 E.coli bacteria in 0.5X Liquid Nematode Growth Media (LNGM) plus cholesterol (Bacteria were mass-grown in rich media, and harvested by centrifugation to produce a thick paste of bacterial cells that was kept frozen at -20°C. Cells were resuspended at 2% W/V in 0.5X LNGM to produce liquid worm food). Using a COPAS Biosort (Union Biometrica), two L4 to young adult stage VC2010 worms were added to each well of the plate in a final volume of 45 μL. After five days of exposure to the compounds, the plates were scanned and the data analyzed. A five day time period was chosen to be able to observe effects over all stages of the life cycle and through at least one round of replication. The initial proof-of-principle primary screen was performed manually using a dissecting microscope. Phenotypes scored included decreased motility, reduced brood size, and/or death as described previously. For high throughput screening of the Chembridge and Maybridge compound libraries we used the program WormScan, which was adapted for screening 96-well flat-bottom LNGM plates. Using WormScan it was possible to screen four 96-well plates at a time. Plates were scanned twice, at a resolution of 1200 dots per inch, 16-bit grayscale, producing a jpeg image. The light intensity produced by the scanner was sufficient to cause negative phototaxis equivalent to a physical stimulus for mortality determination. The time required to scan four 96-well plates using an Epson Perfection V700 Photo Scanner was less than ten minutes. The time to screen a single plate was less than 1.2 minutes, with less than ten seconds between scans.
WormScan was used to screen for the same phenotypes as in the manual screen (reduced brood size, reduced behavior/motility response and increased mortality). Two sequential scans for each 96-well plate were aligned to a reference region of interest (ROI). Image analysis was based on a difference image score calculated for each ROI. The difference image score (WormScan score) was normalized using a “percent of control” method to derive a normalized WormScan score. […] Wild-type growth in 1% DMSO (Fig 1A) results in a normalized WormScan score of 100. Exposure to 50 nM ivermectin gives a score of 0 (Fig 1C), and complete absence of worms gives a score of 0 (Fig 1D). For the primary screen the WormScan score was calculated using custom macro scripts written for Fiji. For secondary screening and any subsequent studies the WormScan score was calculated using a standalone Java program (See supplemental). Probit regression of mortality was calculated using Mathematica 8.0.

[2] = test system: Human embryonic kidney (HEK293) cells; experiment: HEK293 viability, MTT colorimetric assay; type: cell-based; settings: read-out: Mammalian IC50
Protocol: Potential anthelmintic compounds identified from primary screening were further tested against mammalian cells and yeast to determine whether they had deleterious effects in those organisms. Human embryonic kidney (HEK293) cells were grown in Dulbecco’s Modified Eagle’s Medium (DMEM; Sigma) containing 5% fetal bovine serum (FBS; Sigma) in 96-well plates tissue culture plates. Compounds were added 24h post-plating at 10, 30, 100, or 300 μM final concentrations. Dimethyl sulfoxide (DMSO) was used as a negative control at 0.1%. Cells were treated for 24 or 48 hours, after which time viability was assessed using a 3-(4,5-dimethylthiazol-2-yl)-2,5-diphenyltetrazolium bromide (MTT) colorimetric assay. Percent viability was determined by comparing treatment values to DMSO control values.

[3] = test system: S. cerevisiae yeast strain BY4743; experiment: Yeast growth rate (OD600) dose titration; type: cell-based; settings: BY4743, YPD, growth rate reduced by 50%
Protocol: The S. cerevisiae yeast strain BY4743 (MATa/α his3Δ1/his3Δ1 leu2Δ0/leu2Δ0 LYS2/lys2Δ0 met15Δ0/MET15 ura3Δ0/ura3Δ0) was used for all yeast experiments and was grown using yeast extract peptone dextrose (YPD) media at pH 7 [52]. BY4743 was grown overnight to initial log phase and was then grown with the compound identified in the C. elegans assay. The growth rate was quantified by continuously monitoring the optical density of the liquid yeast growth at OD600. The compound was screened in a dose-titration in YPD as described. The IC50 was the concentration required to reduce the growth rate or Average G value by 50% compared to a vehicle control (2% DMSO).

C. elegans VC2010 = experiment: Manual phenotyping pilot screen of 3,584 known compounds (CCBN library); type: in vivo, Caenorhabditis elegans; settings: dissecting microscope, positively confirmed drugs of CCBN library

For `Fc1ccc(COc2ccc(-c3nnco3)cc2)cc1` [CID 2740991], the IC50 [1] was 19 µM, the IC50 [2] was 83 µM and the IC50 [3] was greater than 1000 µM.
With `CCOP(=S)(OCC)Oc1nc(Cl)c(Cl)cc1Cl` [Chlorpyrifos] the “Worm Reaction in Drug” value (C. elegans VC2010) was “both DEAD!”.
In the case of `Cl.c1ccc([C@H]2CN3CCSC3=N2)cc1` [(-)-Tetramisole hydrochloride], the “Worm Reaction in Drug” value (C. elegans VC2010) is reported as “UNC! Paralyzed, lots of worms, 1 starved, 1 not”.
Avermectin B1 was tested, and the “Worm Reaction in Drug” value (C. elegans VC2010) was “adults DEAD”.
For `CC[C@@]1(O)C(=O)OCc2c1cc1n(c2=O)Cc2cc3ccccc3nc2-1` [Camptothecine (S, +)], the “Worm Reaction in Drug” value (C. elegans VC2010) was “unc-ish, few progeny, sickly gonads not developed properly ie. Adults but not eggs, etc”.
`O=C1c2ccc(-c3nc4cc(Cl)ccc4c(=O)o3)cc2C(=O)N1c1ccccc1-c1ccccc1` [CID 2222671] was tested, and the IC50 [1] was greater than 500 µM, the IC50 [2] was 234 µM and the IC50 [3] was greater than 1000 µM.
In the case of `COc1ccc(OCCNC(=O)c2c(F)cccc2Cl)cc1` [CID 2747279], the “anthelmintic activity on retest of the 50 compounds most similar to CID 2747322” value ([1]; re-pinned, two additional biological replicates) is reported as “strong anthelmintic activity”, the IC50 ([1]; Caenorhabditis elegans, 120 h) is reported as 13 µM and the IC50 ([2]; Homo sapiens) is reported as 190 µM. The IC50 ([3]; Saccharomyces cerevisiae) was greater than 1000 µM.
For `Cc1nc2c(c3c1[nH]c1ccccc13)C(=O)CC(C)(C)C2` [CID 3254982], the IC50 [1] was 17 µM, the IC50 [2] was 37 µM and the IC50 [3] was 140 µM.
In the case of `CC(C)(C)c1cc(/C=C(\C#N)C(N)=S)cc(C(C)(C)C)c1O` [Tyrphostin AG 879], the “Worm Reaction in Drug” value (C. elegans VC2010) is reported as “SLOW! Only on 2nd gen, ns”.
`COc1cccc2c1cc([N+](=O)[O-])c1c(C(=O)O)cc3c(c12)OCO3` [Aristolochic acid A] was tested, and the “Worm Reaction in Drug” value (C. elegans VC2010) was “SLOW, 1:only L2s, not starved, 2:1 sterile adult?”.
`C=C1C([C@]2(C)C(CC(=O)OC)[C@@](C)(COC(C)=O)OC(=O)C[C@@H]2OC(C)=O)[C@@H](OC=O)[C@H](OC(=O)C(OC(C)=O)C(C)CC)[C@@]2(C)[C@H](c3ccoc3)CC(=O)C12O` (stereo partly shown) [Prieuranin Acetate] was tested, and the “Worm Reaction in Drug” value (C. elegans VC2010) was “SLOW, barely 1 gen, ns; one well = only 1 worm”.
`NNC(=O)CCn1c2ccc(Cl)cc2c2cc(Cl)ccc21` [CID 766260] was tested, and the IC50 [1] was 282 µM, the IC50 [2] was 44 µM and the IC50 [3] was 113 µM.
In the case of `COP(=S)(OC)Oc1ccc([N+](=O)[O-])cc1` [Methyl Parathione], the “Worm Reaction in Drug” value (C. elegans VC2010) is reported as “SLOW, UNC, ns, 1 gen only”.
`COC(=O)Nc1nc2ccc(Sc3ccccc3)cc2[nH]1` [Fenbendazole] was tested, and the “Worm Reaction in Drug” value (C. elegans VC2010) was “UNC (lots of worms)”.
`CCCCc1ccc2[nH]c(NC(=O)OC)nc2c1` [Parbendazole] was tested, and the “Worm Reaction in Drug” value (C. elegans VC2010) was “UNC! Lots of worms in 1, not starved in 2”.
With `CCCCCC(=O)O[C@]1(C(C)=O)CC[C@H]2[C@@H]3CCC4=CC(=O)CC[C@]4(C)[C@H]3CC[C@@]21C` [Hydroxyprogesterone Caproate] the “Worm Reaction in Drug” value (C. elegans VC2010) was “slower, one starved one not”.
In the case of `COP(=O)(OC)C(O)C(Cl)(Cl)Cl` (stereo not shown) [Trichlorfon], the “Worm Reaction in Drug” value (C. elegans VC2010) is reported as “VERY unhappy, unc-ish, a few dpy/hypercontracted animals”.
With `CCN(CC)C(=O)NC1C=C2c3cccc4[nH]cc(c34)C[C@H]2N(C)C1.O=C(O)/C=C\C(=O)O` (stereo partly drawn) [R(+)-Lisuride hydrogen maleate] the “Worm Reaction in Drug” value (C. elegans VC2010) was “UNCish, starved but slow, lots of worms”.
For `O=C1c2ccc(O)c(O)c2C(=O)c2c(O)ccc(O)c21` [Quinalizarin], the “Worm Reaction in Drug” value (C. elegans VC2010) was “SLOW, unc, ns”.
`C=C(C)C1CC=C(CN(C)C2CCN(C)CC2)CC1` (stereo not shown) [CID 6456299] was tested, and the IC50 [1] was greater than 500 µM, the IC50 [2] was 184 µM and the IC50 [3] was greater than 1000 µM.
For `CNC(=O)O/N=C/C(C)(C)SC` [Aldicarb], the “Worm Reaction in Drug” value (C. elegans VC2010) was “UNC adults, but definitely STARVED”.
`O=C(Nc1ccc(Cl)cc1)Nc1ccc2ncccc2c1` [CID 2823320] was tested, and the IC50 [1] was 40 µM, the IC50 [2] was 45 µM and the IC50 [3] was greater than 1000 µM.
In the case of `N#CSCCCOc1ccccc1Br` [CID 2238042], the IC50 [1] is reported as 357 µM, the IC50 [2] is reported as 67 µM and the IC50 [3] is reported as 338 µM.
`CN(C)c1ccc(C(=C2C=CC(=[N+](C)C)C=C2)c2ccc(N(C)C)cc2)cc1` [Gentian Violet] was tested, and the “Worm Reaction in Drug” value (C. elegans VC2010) was “SLOW! Ns, uncish, only 1 gen past”.
For `C=C(C)[C@@]12O[C@@]3(c4ccccc4)O[C@@H]1[C@@H]1[C@@H]4O[C@]4(CO)[C@@H](O)[C@]4(O)C(=O)C(C)=C[C@H]4[C@@]1(O3)[C@H](C)[C@H]2OC(=O)/C=C/C=C/c1ccccc1` [Mezerein], the “Worm Reaction in Drug” value (C. elegans VC2010) was “Adults DEAD, only L1s/2s, not starved”.
For `C=C1[C@@H]([C@@]2(C)[C@@H](OC(C)=O)CC(=O)O[C@](C)(COC(C)=O)[C@@H]2C(=O)OC)[C@@H](OC=O)[C@H](OC(=O)[C@H](O)[C@H](C)CC)[C@@]2(C)[C@H](c3ccoc3)CC(=O)[C@]12O` [Prieurianin], the “Worm Reaction in Drug” value (C. elegans VC2010) was “SLOW! Only orig adults, one well = dead, ns”.
With `CC(=O)OCC1=C[C@H]2[C@@H]3C(C)(C)[C@]3(OC(=O)Cc3ccccc3)C[C@@H](C)[C@]2(O)[C@@H]2C=C(C)C(=O)[C@@]2(O)C1` [12-Deoxyphorbol 13-phenylacetate 20-acetate] the “Worm Reaction in Drug” value (C. elegans VC2010) was “Adults DEAD, only L1s/2s, not starved”.
In the case of `C=C(C)[C@H]1Cc2c(ccc3c2O[C@@H]2COc4cc(OC)c(OC)cc4[C@@H]2C3=O)O1` [Rotenone], the “Worm Reaction in Drug” value (C. elegans VC2010) is reported as “SLOW, only one gen., few, not starved”.
For `CC(Cc1ccccc1)NCCC(c1ccccc1)c1ccccc1` (stereo not shown) [Prenylamine Lactate], the “Worm Reaction in Drug” value (C. elegans VC2010) was “few progeny, not starved stalls at late larval?”.
With `COC(=O)Nc1nc2ccc(SC(C)C)cc2[nH]1` [Methiazole] the “Worm Reaction in Drug” value (C. elegans VC2010) was “UNC! Lots of worms”.
With `COc1ccccc1NC(=O)Nc1nc(-c2cccnc2)nc2ccccc12` [VUF 5574] the “Worm Reaction in Drug” value (C. elegans VC2010) was “uncish adults, starved”.
In the case of `COc1cc2c(cc1OC)[C@@H]1C(=O)c3ccc4c(c3O[C@@H]1CO2)CC(C(C)C)O4` (stereo partly shown) [Dihydrorotenone], the “Worm Reaction in Drug” value (C. elegans VC2010) is reported as “SLOW uncish only 1 gen ns”.
In the case of `CC(=O)O[C@@]12C[C@@H](C)[C@@]3(O)[C@@H](C=C(CO)C[C@]4(O)C(=O)C(C)=C[C@@H]34)[C@@H]1C2(C)C` [12-Deoxyphorbol 13-acetate], the “Worm Reaction in Drug” value (C. elegans VC2010) is reported as “SLOW only L1/2s (& orig adults), lots unhatched eggs”.
`Cl.Clc1ccc(Cn2c(CN3CCCC3)nc3ccccc32)cc1` [Clemizole Hydrochloride] was tested, and the “Worm Reaction in Drug” value (C. elegans VC2010) was “mostly young ones, a few adults but look sterile, a little unc”.
For `CC(C)[C@@]1(O)[C@@H](OC(=O)c2ccc[nH]2)[C@@]2(O)[C@@]3(C)C[C@]4(O)O[C@@]5([C@H](O)[C@@H](C)CC[C@]35O)[C@@]2(O)[C@@]14C` [Ryanodine], the “Worm Reaction in Drug” value (C. elegans VC2010) was “UNC! 1: lots and starved, 2: few, not starved, less uncish”.
For `COc1cc2c(cc1OC)[C@@H]1C(=O)c3ccc4c(c3O[C@@H]1CO2)C=CC(C)(C)O4` [Deguelin], the “Worm Reaction in Drug” value (C. elegans VC2010) was “SLOW, VERY few progeny, not starved, not very mobile”.
In the case of `CC[C@@]1(O)C(=O)OCc2c1cc1n(c2=O)Cc2cc3ccccc3nc2-1` [Camptothecin], the “Worm Reaction in Drug” value (C. elegans VC2010) is reported as “SLOW - progeny paralyzed, only adults moving, not starved; also recorded: SLOW 1 well only 3 worms (dead ones, unhatched eggs present), other starved, lots of babies, 2nd gen”.
`CCCC(=O)O[C@@H]1[C@@H](C)[C@@]2(O)[C@@H](C=C(CO)C[C@]3(O)C(=O)C(C)=C[C@@H]23)[C@@H]2C(C)(C)[C@]12OC(=O)CCC` [Phorbol 12, 13-dibutyrate] was tested, and the “Worm Reaction in Drug” value (C. elegans VC2010) was “SLOW only L1/2s (one gen. only), not starved”.
